≈ marks a conversion by molar mass, not a printed value. Calls of active or inactive are those of the source. No cut-off for these calls is given here.
How the values were obtained:
Bacillus subtilis [1] = experiment: Antibacterial activity against Bacillus subtilis ATCC 6051 at 100 ug/disk by agar disk diffusion assay; assay type: functional; conditions: read-out: IZ
Staphylococcus aureus [2] = experiment: Antibacterial activity against Staphylococcus aureus ATCC 29213 at 100 ug/disk by agar disk diffusion assay; assay type: functional; conditions: read-out: IZ
Candida albicans = experiment: Antimicrobial activity against Candida albicans ATCC 14053 at 100 ug/disk by agar disk diffusion assay; assay type: functional; conditions: read-out: IZ
Escherichia coli = experiment: Antibacterial activity against Escherichia coli ATCC 25922 at 100 ug/disk by agar disk diffusion assay; assay type: functional; conditions: read-out: IZ
Aspergillus flavus [3] = experiment: Antifungal activity against Aspergillus flavus NRRL 6541 at 200 ug/disk by agar disk diffusion assay; assay type: functional; conditions: read-out: IZ
Fusarium verticillioides [4] = experiment: Antifungal activity against Gibberella moniliformis NRRL 25457 at 200 ug/disk by agar disk diffusion assay; assay type: functional; conditions: read-out: IZ
Fusarium verticillioides [5] = experiment: Antifungal activity against Gibberella moniliformis NRRL 25457 by agar disk diffusion assay; assay type: functional, organism-based
Aspergillus flavus [6] = experiment: Antifungal activity against Aspergillus flavus NRRL 6541 up to 25 ug/ml by agar disk diffusion assay; assay type: functional, organism-based
Aspergillus flavus [7] = experiment: Antifungal activity against Aspergillus flavus NRRL 6541 by agar disk diffusion assay; assay type: functional, organism-based
Bacillus subtilis [8] = experiment: Antibacterial activity against Bacillus subtilis ATCC 6051 at 25 ug/disk by agar disk diffusion assay; assay type: functional, organism-based
Staphylococcus aureus [9] = experiment: Antibacterial activity against Staphylococcus aureus ATCC 29213 at 25 ug/disk by agar disk diffusion assay; assay type: functional, organism-based

Cc1cc2c(c(O)c1-c1c(C)cc3c(c1O)C(=O)C1=C(O)C=C[C@H](O)[C@]1(C)O3)C(=O)C1=C(O)C=C[C@H](O)[C@]1(C)O2 [PHOMALEVONE A]
zone of inhibition at 100 µg/disc (Bacillus subtilis [1]): 36 mm
zone of inhibition at 100 µg/disc (Staphylococcus aureus [2]): 23 mm

Cc1cc(O)c(C(=O)c2c(O)ccc(O)c2C)c(O)c1-c1c(C)cc(O)c(C(=O)c2c(O)ccc(O)c2C)c1O [PHOMALEVONE B]
zone of inhibition at 100 µg/disc (Bacillus subtilis [1]): 38 mm
zone of inhibition at 100 µg/disc (Staphylococcus aureus [2]): 26 mm
zone of inhibition at 100 µg/disc (Candida albicans): 18 mm
zone of inhibition at 100 µg/disc (Escherichia coli): 18 mm

Cc1cc2c(c(O)c1-c1c(C)cc3c(c1O)C(=O)C1=C(O)C=C[C@H](O)[C@]1(C)O3)C(=O)C1=C(O)C=CC(=O)[C@]1(C)O2 [PHOMALEVONE C]
zone of inhibition at 100 µg/disc (Bacillus subtilis [1]): 34 mm
zone of inhibition at 100 µg/disc (Staphylococcus aureus [2]): 22 mm
zone of inhibition at 200 µg/disc (Aspergillus flavus [3]): 10 mm
zone of inhibition at 200 µg/disc (Fusarium verticillioides [4]): 10 mm
MIC (Fusarium verticillioides [5]): 10 µg/mL (≈ 18.4 µM)
Activity (Aspergillus flavus [6]): inactive
IC50 (Aspergillus flavus [7]): 4 µg/mL (≈ 7.35 µM)

GENTAMICIN SULFATE
inhibition zone (IZ) (Bacillus subtilis [8]): 20 mm
inhibition zone (IZ) (Staphylococcus aureus [9]): 20 mm

NYSTATIN
MIC (Fusarium verticillioides [5]): 10 µg/mL
MIC (Aspergillus flavus [7]): 10 µg/mL

Source: ChEMBL document CHEMBL1764972, “Phomalevones A-C: dimeric and pseudodimeric polyketides from a fungicolous Hawaiian isolate of Phoma sp. (Cucurbitariaceae)” (J Nat Prod, 2011)
